Test results reported in US6380217B1, “Methods for controlling GGT-positive bacteria” (priority 1999, dated 2002).

target: GGT (gamma glutamyl transpeptidase) of H. pylori ATCC 43504 cells (Helicobacter pylori, UniProt O25743); experiment: Cell Based GGT Inhibitor (CBGI) Assay; settings: whole H. pylori ATCC 43504 cells, ~30 min room temperature, AMC release fluorescence; table titled 'Binding Data of GGT Modulating Compounds'
Protocol: Cell Based GGT Inhibitor Assay
The protocol of the Cell Based GGT Inhibitor Assay (CBGI assay) is adapted from the Methods in Enzymology protocol 252: 66 (1995).
H. pylori Sample Preparation
H. pylori ATCC 43504 were grown on blood agar plates. For accurate results, the H. pylori cells were in a logarithmic, spiral phase. This was achieved by plating cells from a culture that was >75% spiral in a phosphate buffered saline (PBS) solution on blood agar plates and incubating them overnight in microaerophilic conditions at 37° C. The next day, the cells were harvested by adding 1 ml of PBS to the plate and scraping off cells gently with a loop. The cells were then placed in a sterile 50 ml conical tube and the plate was washed ˜5 times with 1 ml of PBS. The washes were then pooled in the same 50 ml tube. An OD600 was subsequently taken using PBS as the blank. The cells were then resuspended to reach a final OD600 of 0.05. A single blood agar plate typically yields approximately 50-75 mls of cells at A600 OD=0.05. 3 mls of cells at OD=0.05 are required for each 96-well plate; 30 μl added to each well yields a final OD of 0.015. 4-5 blood agar plates would yield more than enough H. pylori cells for 50 96-well microtitre plates.
On each test plate, two known inhibitors were added to separate control wells (4 μl 0.25 mM azaserine and 4 μl 1.25 mM γ-glu-hydroxamate). Control wells containing only cells were also included on each test plate. In each well, 70 μl of buffer was added using an automated dispenser. Then, 30 μl H. pylori cells were added at OD A600=0.05. After the cells were added to each well, the plate was kept at room temperature for ˜30 minutes. The reaction was terminated by dispensing 75 μl 100 mM glycine to each well.
GGT inhibition was determined by analyzing the release of amido-4-methylcoumarin (AMC) at A460 nm after excitation at A360 in Cytoflour//Walloc fluorescent plate reader. The data was compared to the average of the two control wells from each plate and the γ-glu-hydroxamate control, which should always be ˜50%. Any compound that inhibited ≦50% activity was retested.

Chain of GGT (gamma glutamyl transpeptidase) of H. pylori ATCC 43504 cells (O25743 entry or part of it): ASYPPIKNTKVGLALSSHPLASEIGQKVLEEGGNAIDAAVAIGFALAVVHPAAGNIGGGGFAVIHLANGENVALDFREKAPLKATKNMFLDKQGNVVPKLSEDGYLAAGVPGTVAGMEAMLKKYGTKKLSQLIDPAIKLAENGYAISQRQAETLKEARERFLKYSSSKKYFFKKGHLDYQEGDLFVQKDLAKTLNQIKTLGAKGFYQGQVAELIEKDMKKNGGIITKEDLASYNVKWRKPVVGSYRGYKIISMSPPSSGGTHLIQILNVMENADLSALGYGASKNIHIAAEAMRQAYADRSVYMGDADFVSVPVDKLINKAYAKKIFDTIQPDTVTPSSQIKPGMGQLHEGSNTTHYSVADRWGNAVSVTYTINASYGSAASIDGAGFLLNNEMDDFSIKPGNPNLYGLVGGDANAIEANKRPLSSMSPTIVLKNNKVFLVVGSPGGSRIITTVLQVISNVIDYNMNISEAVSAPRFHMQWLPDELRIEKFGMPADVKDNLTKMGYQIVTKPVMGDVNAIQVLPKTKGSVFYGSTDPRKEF

**Q.** How did the IC50 turn out when `CCN1CCCC(NC(=O)c2ccc(Nc3ccnc4cc5ccccc5cc34)cc2)C1` (stereo not shown) [A] was run?
**A.** The IC50 was 1.13 µM.

**Q.** How did the IC50 turn out when `COc1cc(/C=C2/SC(=S)NC2=O)ccc1O` [B] was run?
**A.** The IC50 was 22.4 µM.

**Q.** Which IC50 does the source give for `Cc1nc(-c2nc(C(=O)/C=C/N(C)C)cs2)cs1` [C] here?
**A.** The IC50 was 17.9 to 35.8 µM.

**Q.** Which IC50 does the source give for `CC(C)OC(=O)CSc1nc2cc(C(=O)NC(Cc3cnc[nH]3)C(N)=O)ccc2n1CCc1c[nH]c2ccccc12` (stereo not shown) [D] here?
**A.** Its IC50 is 4.53 µM.

**Q.** How did the IC50 turn out when `CCN(CC)CCn1c(SCC(=O)c2ccc(-c3ccccc3)cc2)nc2cc(C(=O)NC(Cc3cn(Cc4ccccc4)cn3)C(N)=O)ccc21` (stereo not shown) [E] was run?
**A.** Its IC50 is 11.2 µM.

**Q.** With `Cc1ccc(CSc2nnc(/N=C/N(C)C)s2)cc1` [F] as the compound, how does the IC50 read?
**A.** Its IC50 is 2.02 µM.

**Q.** How did the IC50 turn out when `COc1cccc(-c2cc3[nH]c(C)cc(=O)n3n2)c1` [G] was run?
**A.** The IC50 was 2.15 µM.
